Results as given in patent publication US9968649B2, “Vasopressin formulations for use in treatment of hypotension” (Par Pharmaceutical, Inc., priority 2015, dated 2018).
Where “and” joins values, the source holds several entries; their conditions need not be identical. Equal values may be shown once.

Test: Effect of temperature on vasopressin formulations: HPLC vasopressin assay and impurities on storage (Example 8)
Type: physicochemical
Procedure: To analyze degradation products of vasopressin that can be present in an illustrative formulation of vasopressin, gradient HPLC was performed to separate vasopressin from related peptides and formulation components. TABLE 2 below depicts the results of the experiment detailing the chemical formula, relative retention time (RRT), molar mass, and structure of vasopressin and detected impurities.
Vasopressin was detected in the eluent using UV absorbance. The concentration of vasopressin in the sample was determined by the external standard method, where the peak area of vasopressin in sample injections was compared to the peak area of vasopressin reference standards in a solution of known concentration. The concentrations of related peptide impurities in the sample were also determined using the external standard method, using the vasopressin reference standard peak area and a unit relative response factor. An impurities marker solution was used to determine the relative retention times of identified related peptides at the time of analysis.
To test the effect of temperature on the stability of vasopressin formulation, solutions containing 20 units/mL vasopressin and chlorobutanol, adjusted to pH 3.5 with acetic acid, were prepared. One mL of each vasopressin formulations was then filled into 3 cc vials. Each Vasopressin Formulation was stored either inverted or upright for at least three months, up to 24 months, at: (i) 5° C.; (ii) 25° C. and 60% relative humidity; or (iii) 40° C. and 75% humidity, and the amount of vasopressin (U/mL) and % total impurities were measured periodically. TABLES 7-12 below display the results of the experiments at 5° C. The results of the experiments at 25° C. are included in TABLES 13-18. All of the experiments were performed in triplicate. The results of the experiments at 40° C. are included in TABLES 19-24. For each temperature tested, three lots of the vasopressin formulation were stored for 24 months (5° C. and 25° C.) and 3 months (40° C.), and measurements were taken at regular intervals during the testing periods. “NMT” as used in the tables denotes “not more than.”
Experiments were also conducted on the same samples above over the course of the experiments to measure the amount of individual impurities in the samples, pH of the samples, chlorobutanol content, particulate matter, antimicrobial effectiveness, and bacterial endotoxin levels (TABLES 25-42). (NR=no reading; ND=not determined; UI=unidentified impurity).

[1] = inverted, 5° C., Initial, listed as AVP
[2] = inverted, 25° C. and 60% Relative Humidity, 3 months, listed as AVP
[3] = inverted, 25° C. and 60% Relative Humidity, 6 months, listed as AVP
[4] = inverted, 25° C. and 60% Relative Humidity, 9 months, listed as AVP
[5] = inverted, 25° C. and 60% Relative Humidity, 12 months, listed as AVP
[6] = inverted, 25° C. and 60% Relative Humidity, 24 months, listed as AVP
[7] = inverted, 25° C. and 60% Relative Humidity, Initial, listed as AVP
[8] = inverted, 40° C. (75% humidity), 1 month
[9] = inverted, 40° C. (75% humidity), 2 months
[10] = inverted, 40° C. (75% humidity), 3 months
[11] = inverted, 40° C. (75% humidity), Initial
[12] = upright, 5° C., 1 month, listed as AVP
[13] = upright, 5° C., 2 months, listed as AVP
[14] = upright, 5° C., 3 months, listed as AVP
[15] = upright, 5° C., 6 months, listed as AVP
[16] = upright, 5° C., 9 months, listed as AVP
[17] = upright, 5° C., 12 months, listed as AVP
[18] = upright, 5° C., 18 months, listed as AVP
[19] = upright, 5° C., 24 months, listed as AVP
[20] = upright, 5° C., Initial, listed as AVP
[21] = upright, 25° C. and 60% Relative Humidity, 3 months, listed as AVP
[22] = upright, 25° C. and 60% Relative Humidity, 6 months, listed as AVP
[23] = upright, 25° C. and 60% Relative Humidity, 9 months, listed as AVP
[24] = upright, 25° C. and 60% Relative Humidity, 12 months, listed as AVP
[25] = upright, 25° C. and 60% Relative Humidity, 18 months, listed as AVP
[26] = upright, 25° C. and 60% Relative Humidity, 24 months, listed as AVP
[27] = upright, 25° C. and 60% Relative Humidity, Initial, listed as AVP

NC(=O)CC[C@@H]1NC(=O)[C@H](Cc2ccccc2)NC(=O)[C@H](Cc2ccc(O)cc2)NC(=O)[C@@H](N)CSSC[C@@H](C(=O)N2CCC[C@H]2C(=O)N[C@@H](CCCN=C(N)N)C(=O)NCC(N)=O)NC(=O)[C@H](CC(N)=O)NC1=O [Vasopressin, Cyclo (1-6) L-Cysteinyl-L-Tyrosyl-L-Phenylalanyl-L-Glutaminyl-L-Asparaginyl-L-Cysteinyl-L-Prolyl-L-Arginyl-L-Glycinamide]
Related Substances: Acetyl-AVP (inverted, 5° C., Initial): 0.3%
Related Substances: Asp5-AVP (inverted, 5° C., Initial): 0.1%
Related Substances: SEQ ID NO.: 2 (inverted, 5° C., Initial): 0.5% and 0.6%
Related Substances: SEQ ID NO.: 4 (inverted, 5° C., Initial): 0.6% and 0.5%
Related Substances: SEQ ID NO.: 10 (inverted, 5° C., Initial): 0.3%
Related Substances: UI-0.75-0.78 (inverted, 5° C., Initial): 0.2%
Related Substances: UI-0.83-0.84 (inverted, 5° C., Initial): 0.1%
Related Substances: UI-1.02-1.03 (inverted, 5° C., Initial): 0.2%
Related Substances: UI-1.03 (inverted, 5° C., Initial): 0.2%
Related Substances: UI-1.85 (inverted, 5° C., Initial): 0.2%
Related Substances: UI-2.05 (inverted, 5° C., Initial): 0.1% and 0.2%
Vasopressin (AVP) Assay (inverted, 5° C., Initial): 19.4 U/mL and 19.7 U/mL
Total Impurities [1]: 2.3% and 2.7% and 2.2%
Vasopressin (AVP) Assay [1]: 19.4 U/mL and 19.7 U/mL
AVP Assay [2]: 19.4 U/mL and 19.7 U/mL and 19.6 U/mL
Total Impurities [2]: 2.4% and 2.5% and 2.6%
AVP Assay [3]: 19.1 U/mL and 19.3 U/mL and 19.2 U/mL
Total Impurities [3]: 3.7% and 3.4% and 3.3%
AVP Assay [4]: 18.8 U/mL and 19 U/mL
Total Impurities [4]: 4.7% and 4.6%
AVP Assay [5]: 18.3 U/mL and 18.6 U/mL and 18.7 U/mL
Total Impurities [5]: 5.9% and 5.6%
Total Impurities (inverted, 25° C. and 60% Relative Humidity, 18 months): 9.0%
AVP Assay (inverted, 25° C. and 60% Relative Humidity, 18 months, listed as AVP): 17.5 U/mL and 17.6 U/mL and 18 U/mL
AVP Assay [6]: 17.3 U/mL and 17.6 U/mL and 17.4 U/mL
Total Impurities [6]: 13.6% and 13.4% and 12.9%
AVP Assay [7]: 19.8 U/mL and 20.1 U/mL and 19.9 U/mL
Total Impurities [7]: 1.1% and 1.3% and 1.5%
Total Impurities [8]: 3.7% and 3.6%
Vasopressin Assay [8]: 19.1 U/mL and 19.3 U/mL and 19.2 U/mL
Total Impurities [9]: 7.3%
Vasopressin Assay [9]: 18.6 U/mL and 18.7 U/mL and 18.3 U/mL
Total Impurities [10]: 10.6% and 10.3%
Vasopressin Assay [10]: 17.3 U/mL and 17.6 U/mL and 17.4 U/mL
Total Impurities [11]: 1.1% and 1.3%
Vasopressin Assay [11]: 19.8 U/mL and 20.1 U/mL and 19.9 U/mL
Related Substances: Acetyl-AVP (inverted, 40° C., 1 month): 0.2%
Related Substances: Asp5-AVP (inverted, 40° C., 1 month): 0.2%
Related Substances: D-Asn-AVP (inverted, 40° C., 1 month): 0.4%
Related Substances: SEQ ID NO.: 2 (inverted, 40° C., 1 month): 1.0%
Related Substances: SEQ ID NO.: 4 (inverted, 40° C., 1 month): 1.1%
Related Substances: UI-0.13 (inverted, 40° C., 1 month): 0.1%
Related Substances: UI-1.02-1.03 (inverted, 40° C., 1 month): 0.3%
Related Substances: UI-1.56-1.57 (inverted, 40° C., 1 month): 0.2%
Related Substances: UI-1.93 (inverted, 40° C., 1 month): 0.1%
Related Substances: Acetyl-AVP (inverted, 40° C., 2 months): 0.2%
Related Substances: Asp5-AVP (inverted, 40° C., 2 months): 0.5%
Related Substances: D-Asn-AVP (inverted, 40° C., 2 months): 0.3%
Related Substances: SEQ ID NO.: 2 (inverted, 40° C., 2 months): 2.4%
Related Substances: SEQ ID NO.: 4 (inverted, 40° C., 2 months): 2.7%
Related Substances: UI-1.02-1.03 (inverted, 40° C., 2 months): 0.2%
Related Substances: UI-1.56-1.57 (inverted, 40° C., 2 months): 0.4%
Related Substances: UI-1.83-1.85 (inverted, 40° C., 2 months): 0.2%
Related Substances: UI-1.87-1.88 (inverted, 40° C., 2 months): 0.2%
Related Substances: UI-2.05-2.08 (inverted, 40° C., 2 months): 0.2%
Related Substances: Acetyl-AVP (inverted, 40° C., 3 months): 0.2%
Related Substances: Asp5-AVP (inverted, 40° C., 3 months): 0.8%
Related Substances: D-Asn-AVP (inverted, 40° C., 3 months): 0.3%
Related Substances: SEQ ID NO.: 2 (inverted, 40° C., 3 months): 3.8%
Related Substances: SEQ ID NO.: 4 (inverted, 40° C., 3 months): 4.3%
Related Substances: UI-1.02-1.03 (inverted, 40° C., 3 months): 0.3%
Related Substances: UI-1.18 (inverted, 40° C., 3 months): 0.2%
Related Substances: UI-1.56-1.57 (inverted, 40° C., 3 months): 0.4%
Related Substances: UI-1.83-1.85 (inverted, 40° C., 3 months): 0.2%
Related Substances: UI-1.87-1.88 (inverted, 40° C., 3 months): 0.2%
Related Substances: Acetyl-AVP (inverted, 40° C., Initial): 0.3%
Related Substances: D-Asn-AVP (inverted, 40° C., Initial): 0.3%
Related Substances: SEQ ID NO.: 2 (inverted, 40° C., Initial): 0.1%
Related Substances: SEQ ID NO.: 4 (inverted, 40° C., Initial): 0.1%
Related Substances: UI-1.02-1.03 (inverted, 40° C., Initial): 0.2%
AVP Assay [12]: 19.5 U/mL and 19.7 U/mL
Total Impurities [12]: 2.1% and 1.8%
AVP Assay [13]: 19.4 U/mL and 19.6 U/mL
Total Impurities [13]: 2.1% and 2.2% and 2.0%
AVP Assay [14]: 19.4 U/mL and 19.7 U/mL
Total Impurities [14]: 2.3% and 2.2%
AVP Assay [15]: 19.5 U/mL and 19.8 U/mL
Total Impurities [15]: 2.1% and 2.2%
AVP Assay [16]: 19.5 U/mL and 19.7 U/mL
Total Impurities [16]: 2.3% and 2.1%
AVP Assay [17]: 19.5 U/mL and 19.8 U/mL and 19.9 U/mL
Total Impurities [17]: 2.5% and 2.6% and 2.4%
AVP Assay [18]: 19.4 U/mL and 19.7 U/mL and 19.8 U/mL
Total Impurities [18]: 2.9% and 2.8%
AVP Assay [19]: 19.3 U/mL and 19.5 U/mL
Total Impurities [19]: 2.9% and 2.8% and 2.7%
AVP Assay [20]: 19.4 U/mL and 19.7 U/mL
Total Impurities [20]: 2.3% and 2.7% and 2.2%
AVP Assay [21]: 19.4 U/mL and 19.7 U/mL and 19.6 U/mL
Total Impurities [21]: 2.4% and 2.5%
AVP Assay [22]: 19.1 U/mL and 19.4 U/mL and 19.2 U/mL
Total Impurities [22]: 3.2% and 3.3% and 3.7%
AVP Assay [23]: 18.8 U/mL and 18.9 U/mL and 19 U/mL
Total Impurities [23]: 4.8% and 4.5% and 4.7%
AVP Assay [24]: 18.3 U/mL and 18.6 U/mL and 18.5 U/mL
Total Impurities [24]: 5.6% and 5.7% and 5.9%
AVP Assay (upright, 25° C. and 60% Relative Humidity, 18 months): 18.1 U/mL
AVP Assay [25]: 17.5 U/mL and 17.8 U/mL
Total Impurities [25]: 9.2% and 9.1%
Total Impurities (upright, 25° C. and 60% Relative Humidity, 24 months): 13.3%
AVP Assay [26]: 17.4 U/mL and 17.7 U/mL
Total Impurities [26]: 13.1%
AVP Assay [27]: 19.8 U/mL and 20.1 U/mL and 19.9 U/mL
Total Impurities [27]: 1.1% and 1.3% and 1.5%
